{
  "source": "patent US11338007B2",
  "about": "“Combination formulation of three antiviral compounds” (priority 2016, dated 2022)",
  "format_in_all_cases": "physicochemical",
  "key": {"[1]": {"experiment": "BCS classification and pH dependence of solubility"}, "[2]": {"experiment": "Chemical and physical stability of Formulation G film-coated tablets Lots A and B (Tables 11A, 11B)", "method": "In some embodiments, the film-coated tablets were packaged in 75 and 100 mL white HDPE bottles (Lots A and B, respectively, as described in Tables 11A, 11B) with 1 g silica gel desiccant canisters and a polyester fiber coil. The 75 and 100 mL HDPE bottles contained fourteen and twenty eight tablets, respectively. Each HDPE bottle was capped using a continuous thread, child-resistant polypropylene screw cap with an […], aluminum-faced line. The packaged tablets (14 and 28 counts) were evaluated for stability at 40° C./75% RH and 25° C./60% RH. Additionally, the 14-count bottles (without cap) were evaluated for stability under open conditions at 40° C./75% RH."}, "[3]": {"experiment": "Stability of clinical film-coated tablets Batches A-D (Tables 14, 15A-15C)", "settings": "for LS (%): tablets Batch C, 1 g desiccant", "method": "FIGS. 10-12 depict additional dissolution profiles for the sofosbuvir/velpatasvir SSD/voxilaprevir SSD tablets having the formulation described in Table 13 and which were used in phase 1, 2, and 3 clinical studies, where the dissolution testing was conducted at pH 5.0 acetate buffer containing 2.0% w/v polysorbate 80. Four batches of the sofosbuvir/velpatasvir SSD/voxilaprevir SSD tablets were tested, with Batch A manufactured at 100 kg and Batches B, C and D manufactured at 145 kg. All other aspects of the formulation and manufacturing process were otherwise equivalent. The four batches were packed in the same commercial configuration: 28 count, 100 mL HPDE bottle with 1 g silica gel desiccant canister and a polyester fiber coil. […] Moreover, for Batch A, the amount dissolved at 30 min remained between 98 and 100% for sofosbuvir, between 90 and 92% for velpatasvir SSD, and between 89 and 93% for voxilaprevir SSD. […] For Batch D, the amount dissolved at 30 min remained at 100% for sofosbuvir, between 90 and 91% for velpatasvir SSD, and between 89 and 91% for voxilaprevir SSD. Release of velpatasvir SSD and voxilaprevir SSD from the sofosbuvir/velpatasvir SSD/voxilaprevir SSD tablets associated with all four Batches was complete after 60 minutes.\nStability data associated with the sofosbuvir/velpatasvir SSD/voxilaprevir SSD film-coated tablets (Batch A) are presented in Table 14. […] No upward trend in the content of degradation products was observed over the time period studied. The water content for packaged tablets remained between 1.9 and 2.3% through 6 months storage at 40° C./75% RH, 30° C./75% RH, and 25° C./60% RH. As summarized in Table 14, the packaged tablets (Batch A) were physically stable with no change in XRPD patterns after 6 months storage.\nStability data associated with the sofosbuvir/velpatasvir SSD/voxilaprevir SSD film-coated tablets (Batches B-D) are presented in Tables 15A-15C, respectively. […] No upward trend in the content of degradation products was observed over the time period studied. The water content for packaged tablets remained between 1.8 and 2.3% through 6 months storage at 40° C./75% RH, 30° C./75% RH, and 25° C./60% RH. The packaged tablets were physically stable with no change in XRPD patterns after 6 months storage.\nFor Batch D, the packaged tablets had acceptable chemical stability for up to 1 month under all conditions with total impurities/degradation products of sofosbuvir remaining at 0.0%, velpatasvir SSD remaining between 0.7 and 0.8%, and voxilaprevir SSD remaining at 0.0%. No upward trend in the content of degradation products was observed over the time period studied. The water content for packaged tablets remained between 1.9 and 2.3% through 1 month storage at 40° C./75% RH, 30° C./75% RH, and 25° C./60% RH."}, "[4]": {"settings": "Batch A, 25° C./60% RH, 3 months"}, "[5]": {"settings": "Batch A, 25° C./60% RH, 6 months"}, "[6]": {"settings": "Batch A, 30° C./75% RH, 3 months"}, "[7]": {"settings": "Batch A, 30° C./75% RH, 6 months"}, "[8]": {"settings": "Batch A, 40° C./75% RH, 1 month"}, "[9]": {"settings": "Batch A, 40° C./75% RH, 3 months"}, "[10]": {"settings": "Batch A, 40° C./75% RH, 6 months"}},
  "data": [
    {"smiles": "CC(C)OC(=O)C(C)N[P@](=O)(OC[C@H]1O[C@@H](n2ccc(=O)[nH]c2=O)[C@](C)(F)[C@@H]1O)Oc1ccccc1", "note": "(stereo in doubt) [sofosbuvir, (S)-isopropyl 2-(((S)-(((2R,3R,4R,5R)-5-(2,4-dioxo-3,4-dihydropyrimidin-1(2H)-yl)-4-fluoro-3-hydroxy-4-methyltetrahydrofuran-2-yl)methoxy)(phenoxy)phosphoryl)amino)propanoate]", "values": [
      {"measurement": "BCS Class", "setting": "[1]", "result": "BCS Class 3"},
      {"measurement": "aqueous solubility, pH dependence", "setting": "[1]", "result": "high and pH-independent"},
      {"measurement": "total impurities/degradation products", "setting": "[2]; Formulation G tablets, open conditions at 40° C./75% RH for 6 months", "result": 0.0, "unit": "%"},
      {"measurement": "Total Imp./Deg.", "setting": "[2]; Lot A (14 ct), 25° C./60% RH Closed, 1 month", "result": 0.0, "unit": "%"},
      {"measurement": "Total Imp./Deg.", "setting": "[2]; Lot A (14 ct), 25° C./60% RH Closed, 3 months", "result": 0.0, "unit": "%"},
      {"measurement": "Total Imp./Deg.", "setting": "[2]; Lot A (14 ct), 25° C./60% RH Closed, 6 months", "result": 0.0, "unit": "%"},
      {"measurement": "Total Imp./Deg.", "setting": "[2]; Lot A (14 ct), 40° C./75% RH Closed, 1 month", "result": 0.0, "unit": "%"},
      {"measurement": "Total Imp./Deg.", "setting": "[2]; Lot A (14 ct), 40° C./75% RH Closed, 3 months", "result": 0.0, "unit": "%"},
      {"measurement": "Total Imp./Deg.", "setting": "[2]; Lot A (14 ct), 40° C./75% RH Closed, 6 months", "result": 0.0, "unit": "%"},
      {"measurement": "Total Imp./Deg.", "setting": "[2]; Lot A (14 ct), 40° C./75% RH Open, 1 month", "result": 0.0, "unit": "%"},
      {"measurement": "Total Imp./Deg.", "setting": "[2]; Lot A (14 ct), 40° C./75% RH Open, 3 months", "result": 0.0, "unit": "%"},
      {"measurement": "Total Imp./Deg.", "setting": "[2]; Lot A (14 ct), 40° C./75% RH Open, 6 months", "result": 0.0, "unit": "%"},
      {"measurement": "Total Imp./Deg.", "setting": "[2]; Lot A (14 ct), Initial", "result": 0.0, "unit": "%"},
      {"measurement": "Total Imp./Deg.", "setting": "[2]; Lot B (28 ct), 25° C./60% RH Closed, 1 month", "result": 0.0, "unit": "%"},
      {"measurement": "Total Imp./Deg.", "setting": "[2]; Lot B (28 ct), 25° C./60% RH Closed, 3 months", "result": 0.0, "unit": "%"},
      {"measurement": "Total Imp./Deg.", "setting": "[2]; Lot B (28 ct), 25° C./60% RH Closed, 6 months", "result": 0.0, "unit": "%"},
      {"measurement": "Total Imp./Deg.", "setting": "[2]; Lot B (28 ct), 40° C./75% RH Closed, 1 month", "result": 0.0, "unit": "%"},
      {"measurement": "Total Imp./Deg.", "setting": "[2]; Lot B (28 ct), 40° C./75% RH Closed, 3 months", "result": 0.0, "unit": "%"},
      {"measurement": "Total Imp./Deg.", "setting": "[2]; Lot B (28 ct), 40° C./75% RH Closed, 6 months", "result": 0.0, "unit": "%"},
      {"measurement": "Total Imp./Deg.", "setting": "[2]; Lot B (28 ct), Initial", "result": 0.0, "unit": "%"},
      {"measurement": "total impurities/degradation products", "setting": "[2]; packaged Formulation G tablets, 40° C./75% RH and 25° C./60% RH for 6 months", "result": 0.0, "unit": "%"},
      {"measurement": "LS", "setting": "[3]; [4]", "result": 102.7, "unit": "%"},
      {"measurement": "Total Imp./Deg.", "setting": "[3]; [4]", "result": 0.0, "unit": "%"},
      {"measurement": "LS", "setting": "[3]; [5]", "result": 99.0, "unit": "%"},
      {"measurement": "Total Imp./Deg.", "setting": "[3]; [5]", "result": 0.0, "unit": "%"},
      {"measurement": "LS", "setting": "[3]; [6]", "result": 100.3, "unit": "%"},
      {"measurement": "Total Imp./Deg.", "setting": "[3]; [6]", "result": 0.0, "unit": "%"},
      {"measurement": "LS", "setting": "[3]; [7]", "result": 98.1, "unit": "%"},
      {"measurement": "Total Imp./Deg.", "setting": "[3]; [7]", "result": 0.0, "unit": "%"},
      {"measurement": "LS", "setting": "[3]; [8]", "result": 99.7, "unit": "%"},
      {"measurement": "Total Imp./Deg.", "setting": "[3]; [8]", "result": 0.0, "unit": "%"},
      {"measurement": "LS", "setting": "[3]; [9]", "result": 101.7, "unit": "%"},
      {"measurement": "Total Imp./Deg.", "setting": "[3]; [9]", "result": 0.0, "unit": "%"},
      {"measurement": "LS", "setting": "[3]; [10]", "result": 98.7, "unit": "%"},
      {"measurement": "Total Imp./Deg.", "setting": "[3]; [10]", "result": 0.0, "unit": "%"},
      {"measurement": "LS", "setting": "[3]; Batch A, Initial", "result": 99.0, "unit": "%"},
      {"measurement": "Total Imp./Deg.", "setting": "[3]; Batch A, Initial", "result": 0.0, "unit": "%"},
      {"measurement": "total impurities/degradation products", "setting": "[3]; Batch A, up to 6 months under all conditions", "result": 0.0, "unit": "%"},
      {"measurement": "LS", "setting": "[3]; Batch B, 25° C./60% RH, 3 months", "result": 100.7, "unit": "%"},
      {"measurement": "LS", "setting": "[3]; Batch B, 25° C./60% RH, 6 months", "result": 100.1, "unit": "%"},
      {"measurement": "LS", "setting": "[3]; Batch B, 30° C./75% RH, 3 months", "result": 98.4, "unit": "%"},
      {"measurement": "LS", "setting": "[3]; Batch B, 30° C./75% RH, 6 months", "result": 98.8, "unit": "%"},
      {"measurement": "LS", "setting": "[3]; Batch B, 40° C./75% RH, 1 month", "result": 101.7, "unit": "%"},
      {"measurement": "LS", "setting": "[3]; Batch B, 40° C./75% RH, 3 months", "result": 99.8, "unit": "%"},
      {"measurement": "LS", "setting": "[3]; Batch B, 40° C./75% RH, 6 months", "result": 99.0, "unit": "%"},
      {"measurement": "LS", "setting": "[3]; Batch B, Initial", "result": 100.0, "unit": "%"},
      {"measurement": "Total Imp./Deg.", "setting": "[3]; Batch B, Initial", "result": 0.0, "unit": "%"},
      {"measurement": "LS", "setting": "[3]; Batch D, 40° C./75% RH, 1 month", "result": 99.7, "unit": "%"},
      {"measurement": "LS", "setting": "[3]; Batch D, Initial", "result": 99.8, "unit": "%"},
      {"measurement": "total impurities/degradation products", "setting": "[3]; Batch D, up to 1 month under all conditions", "result": 0.0, "unit": "%"},
      {"measurement": "total impurities/degradation products", "setting": "[3]; Batches B and C, up to 6 months under all conditions", "result": 0.0, "unit": "%"},
      {"measurement": "LS (%)", "setting": "[3]; 25° C./60% RH, 3 months", "result": 98.9, "unit": "%"},
      {"measurement": "LS (%)", "setting": "[3]; 25° C./60% RH, 6 months", "result": 98.8, "unit": "%"},
      {"measurement": "LS (%)", "setting": "[3]; 30° C./75% RH, 3 months", "result": 100.1, "unit": "%"},
      {"measurement": "LS (%)", "setting": "[3]; 30° C./75% RH, 6 months", "result": 99.1, "unit": "%"},
      {"measurement": "LS (%)", "setting": "[3]; 40° C./75% RH, 1 month", "result": 101.1, "unit": "%"},
      {"measurement": "LS (%)", "setting": "[3]; 40° C./75% RH, 3 months", "result": 99.4, "unit": "%"},
      {"measurement": "LS (%)", "setting": "[3]; 40° C./75% RH, 6 months", "result": 98.9, "unit": "%"},
      {"measurement": "LS (%)", "setting": "[3]; Initial, time 0", "result": 99.1, "unit": "%"}
    ]}
  ]
}
